# Reference: PMC10876507, “Chelator impact: investigating the pharmacokinetic behavior of copper-64 labeled PD-L1 radioligands” (EJNMMI Radiopharmacy and Chemistry, 2024)
# Where “and” joins values, the source holds several entries; their conditions need not be identical. Equal entries are not always repeated.
# Legend:
# [1] = n-octanol/PBS pH 7.4, shake flask
# Experimental: The n-octanol/water distribution coefficients for each radioligand were determined using the shake-flask method. Each experiment was conducted in triplicate. To initiate the experiment, 30 µL of the labeling mixture was combined with 570 µL of PBS (pH 7.4) and 600 µL of n-octanol in a 1.5 mL Eppendorf-Tube. The resulting mixture was shaken at room temperature at 1500 rpm for 5 min before undergoing centrifugation. An aliquot was extracted from each phase, and radioactivity was measured on a γ-counter (ISOMED 2160). Subsequently, mean values were calculated and adjusted for background activity. The log D7.4 value was determined utilizing the equation: logD7.4=logAn-octanol/APBS
# [2] = Proteolytic stability in human serum at 37 °C, radio-HPLC; type: in vitro ADME; details: 48 h
# Experimental: For proteolytic stability studies, a solution of the radiolabeled compound was diluted with human serum in a ratio of 1:10. This mixture then underwent incubation at 37 °C while being shaken at 300 rpm. At each designated timepoint (1, 24 and 48 h), an aliquot was withdrawn and added to a detergent solution (water with 20% v/v EtOH, 5% v/v 5 mM aqueous EDTA, 0.5% v/v Triton X-100, 0.1% m/v saponin, 0.05% v/v 0.5 mM aqueous o-phenanthroline) in a ratio of 1:2 for precipitation of serum proteins. The mixture was cooled on ice for 5 min, followed by centrifugation at 12,000 g for 5 min. A minor portion of the resulting supernatant was subjected to analytical radio-HPLC (reversed-phase, Phenomenex Jupiter 300 C-18, 5 µm, 4.6 × 250 mm) with 10–95% acetonitrile (0.1% TFA) in water (0.1% TFA) in a linear gradient over 15 min, 1 mL/min, γ-detection). The assessment and graphical representations were performed using OriginPro® 9.0.
# [3] = test system: PC3 PD-L1 overexpressing and PD-L1-mock tumors; test: PET imaging in NMRI-nude mice bearing PC3 PD-L1 and PC3 mock tumors; type: in vivo; details: for excretion pattern / clearance route in PET: PET 0–25 h p.i.; for SUVmax PC3 PD-L1 tumor / SUVmax PC3 mock tumor / SUVmax kidney / SUVmax liver: tracer only, i.v.
# Experimental: Male athymic NMRI-nude mice (Rj:NMRI-Foxn1nu, Janvier Labs, Le Genest-Saint-Isle, France) aged between 8 to 16 weeks were employed for the study. General anesthesia was induced [~ 10% desflurane (Baxter, Deerfield, IL, USA) in 30 vol% oxygen + air] under controlled warming (37°C), and mice were subcutaneously injected with 3–5 × 10^6 PC3 PD-L1 and PC3 mock cells (in 50 µL PBS + 50 µL Matrigel, Corning, Glendale, CA, USA) into the right and left thigh, respectively. The growth of tumors was systematically monitored three times per week through caliper measurements, and animals with tumor sizes above 7 mm were included in the subsequent experiments.
# PET and X-ray computed tomography (CT) scans were conducted under general anesthesia using a small animal nanoScan PET/CT scanner (Mediso, Budapest, Hungary), capable of imaging four animals simultaneously. CT images served attenuation correction and anatomical referencing. A total of three individual scans were conducted, corresponding to the timeframes of 0–2 h (dynamic reconstruction), 4–5 h, and 24–25 h (one frame reconstruction) after injection.
# The PD-L1 radiotracer candidates (in 300 µL sterile 0.9% NaCl/HEPES buffer, pH 6–7, containing between 7 and 12 MBq, with molar activities exceeding 12 GBq/µmol) were intravenously delivered over 30 s through a catheter in the lateral tail vein. The PET acquisition was initiated simultaneously with the administration.
# The acquired three-dimensional list mode data were sorted and binned within a 400–600 keV energy window, forming […] (15 × 10 s, 5 × 30 s, 5 × 60 s, 4 × 300 s, 3 × 600 s, 3 × 1200 s). Reconstruction of the time frames was accomplished using the Tera-TomoTM 3D algorithm, utilizing a voxel size of 0.4 mm and applying corrections for decay, scatter, and attenuation. The images were subjected to post-processing and analysis using Rover software (ABX GmbH, Radeberg, Germany), and were depicted as maximum intensity projections (MIPs) at the specified timepoints and scaling.
# Three-dimensional volumes of interest were defined using fixed thresholding at 35–40% of the maximal measured intensity. Standardized uptake values (SUV = [MBq detected activity/mL tissue] / [MBq injected activity/g body weight], in mL/g) were then calculated within the selected volumes of interest, encompassing PD-L1 and mock tumors, as well as metabolizing organs.
# [4] = biological target: T1, PD-L1 (Homo sapiens, UniProt Q9NZQ7); test: Real-time radioligand binding (LigandTracer) on PC3 PD-L1 overexpressing cells, without BSA; parameters: expressed in transfected cells; host or cells: PC3 PD-L1 overexpressing cells
# Experimental: For the saturation binding experiments, cells were detached with 0.05% Trypsin–EDTA (Gibco, USA), and counted (CASY1 cell counter, Schaerfe System, Reutlingen, Germany). Cells were then diluted in medium to ~ 160,000 cells/mL and seeded in 48 well plates (Falcon Multiwell #353078, ThermoFisher, Karlsruhe, Germany) for at least 2 days prior to saturation binding experiments. For real-time radioligand binding, approximately 400,000 cells/mL were seeded into one side of petri dishes (3 mL, Nunclon, # 150350, ThermoFisher Germany) ~ 24 h before the experiments.
# To investigate binding kinetics, including the association rate constant (ka) and dissociation rate constant (kd), as well as the dissociation constant (KD), a real-time assay system (LigandTracer Yellow or LigandTracer White, Ridgeview Instruments AB, Uppsala, Sweden) was utilized. The petri dish contained attached cells in medium (3 mL) on one side, while radioactivity was detected on the opposing side. The petri dish is set upon an inclined base, allowing continuous measurement of alternating portions of the dish for bound radioligand (cells) compared to the background signal (no cells). Binding experiments were carried out at room temperature using CO2-independent medium (Gibco #18045088, ThermoFisher Germany).
# The association phase consisted of incubation with two concentrations (30 and 90 nM, each for 90 min) of our ^64Cu-labeled PD-L1-radioligands, binding to PC3 PD-L1 overexpressing cells. Following this, the incubation medium was replaced with fresh medium, and the dissociation phase was monitored for a minimum of 2 h. […] Data were recorded as decay-corrected counts per second (CPS). Subsequently, binding data were analyzed using TraceDrawer software (version 1.9.2, Ridgeview Instruments AB, Uppsala, Sweden). Traces were imported, potential spikes (instances of sudden CPS increases exceeding 100% of the previous data point) were eliminated, and each trace was normalized to its own baseline (set as 0%) and its maximum value (set as 100%).
# [5] = biological target: T1, PD-L1; test: Saturation binding assay on human PD-L1 transduced PC3 cells (assay buffer with 2.5% BSA); parameters: expressed in transfected cells; host or cells: PC3 cells transduced with human PD-L1 (PC3-PD-L1)
# [6] = tracer +500 nM respective unlabeled compound, 1-2 hour p.i., mice
# [7] = tracer +500 nM respective unlabeled compound, 4-5 hour p.i., mice
# [8] = tracer +500 nM respective unlabeled compound, 24-25 hour p.i., mice
# [9] = 1-2 hour p.i., mice, listed as [64Cu]Cu-15
# [10] = 1-2 hour p.i., mice, listed as [64Cu]Cu-17
# [11] = 4-5 hour p.i., mice, listed as [64Cu]Cu-17
# [12] = 24-25 hour p.i., mice, listed as [64Cu]Cu-17
# T1 sequence (Q9NZQ7 19-290): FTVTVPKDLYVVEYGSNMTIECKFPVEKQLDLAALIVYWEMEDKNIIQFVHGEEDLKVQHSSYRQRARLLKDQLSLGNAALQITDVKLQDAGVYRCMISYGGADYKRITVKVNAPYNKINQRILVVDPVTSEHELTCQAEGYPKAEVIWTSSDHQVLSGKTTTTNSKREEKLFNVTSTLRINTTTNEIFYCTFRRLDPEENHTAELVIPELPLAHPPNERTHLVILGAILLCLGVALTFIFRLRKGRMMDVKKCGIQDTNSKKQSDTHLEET
structure (smiles),measurement,setting,value
Cc1c(COc2cc(OCc3cncc(S(C)(=O)=O)c3)c(CN[C@@H](CS(=O)(=O)O)C(=O)NCCS(=O)(=O)O)cc2Br)cccc1-c1cccc(OCc2cn(CCCN3CCN(C(=O)[C@H](CS(=O)(=O)O)NC(=O)CN4CCCN5CCN(CCCN(CC(=O)[O-])CC5)CC4)CC3)nn2)c1C.[64Cu+2] [[^64Cu]Cu-15],Log D7.4,[1],–2.11 ± 0.02
same,intact radioligand after incubation in human serum,[2],88%
same,PD-L1 tumor uptake after preinjection of 500 nmol of cold ligand,"[3]; blocking, mice",not significantly reduced
same,excretion pattern / clearance route in PET,[3]; mice,hepatobiliary excretion pattern
same,"SUVmax PC3 PD-L1 tumor, blocking","[3]; tracer +500 nM respective unlabeled compound (injected 5 min prior), 1-2 hour p.i., mice",1.58
same,"SUVmax PC3 mock tumor, blocking",[3]; [6],1.17
same,"SUVmax kidney, blocking",[3]; [6],7.41
same,"SUVmax liver, blocking",[3]; [6],1.49
same,"SUVmax PC3 PD-L1 tumor, blocking",[3]; [7],0.77
same,"SUVmax PC3 mock tumor, blocking",[3]; [7],0.57
same,"SUVmax kidney, blocking",[3]; [7],0.78
same,"SUVmax liver, blocking",[3]; [7],1.82
same,"SUVmax PC3 PD-L1 tumor, blocking",[3]; [8],0.91
same,"SUVmax PC3 mock tumor, blocking",[3]; [8],0.78
same,"SUVmax kidney, blocking",[3]; [8],0.51
same,"SUVmax liver, blocking",[3]; [8],0.78
same,SUVmax PC3 PD-L1 tumor,"[3]; 1-2 hour p.i., mice",1.03 ± 0.23
same,SUVmax PC3 mock tumor,"[3]; 1-2 hour p.i., mice",0.61
same,SUVmax kidney,"[3]; 1-2 hour p.i., mice",3.26 ± 0.98
same,SUVmax liver,"[3]; 1-2 hour p.i., mice",3.80 ± 0.33
same,SUVmax PC3 PD-L1 tumor,[3]; [9],1.03
same,SUVmax kidney,[3]; [9],3.26
same,SUVmax liver,[3]; [9],3.80
same,SUVmax PC3 PD-L1 tumor,"[3]; 4-5 hour p.i., mice",0.66 ± 0.16
same,SUVmax PC3 mock tumor,"[3]; 4-5 hour p.i., mice",0.44
same,SUVmax kidney,"[3]; 4-5 hour p.i., mice",0.68
same,SUVmax liver,"[3]; 4-5 hour p.i., mice",1.41
same,SUVmax PC3 PD-L1 tumor,"[3]; 4-5 hour p.i., mice, listed as [64Cu]Cu-15",0.66
same,SUVmax PC3 PD-L1 tumor,"[3]; 24-25 hour p.i., mice",0.90 ± 0.09
same,SUVmax PC3 mock tumor,"[3]; 24-25 hour p.i., mice",0.76
same,SUVmax kidney,"[3]; 24-25 hour p.i., mice",0.48
same,SUVmax liver,"[3]; 24-25 hour p.i., mice",1.01
same,SUVmax PC3 PD-L1 tumor,"[3]; 24-25 hour p.i., mice, listed as [64Cu]Cu-15",0.90
same,Kd,"[4]; PC3 PD-L1 overexpressing cells, room temperature, without BSA",~20 nM and 19.1 nM
same,ka,"[4]; association rate constant, real-time binding",(5.10 ± 0.55) × 10^3 (M × s)^–1
same,kd,"[4]; dissociation rate constant, real-time binding",(0.96 ± 0.02) × 10^–4 s^–1
same,Kd,"[5]; human PD-L1 transduced PC3 cells, on ice 90 min, PBS + 2.5% w/v BSA",185 nM
same,Bmax,"[5]; saturation binding, pmol/mg protein, PC3 PD-L1 cells",2.58 ± 0.35 pmol/mg
Cc1c(COc2cc(OCc3cncc(S(C)(=O)=O)c3)c(CN[C@@H](CS(=O)(=O)O)C(=O)NCCS(=O)(=O)O)cc2Br)cccc1-c1cccc(OCc2cn(CCCN3CCN(C(=O)[C@H](CS(=O)(=O)O)NC(=O)CCCC(=O)NC45CNCCNCC(NC(=O)CCCC(=O)N[C@@H](CS(=O)(=O)O)C(=O)N6CCN(CCCn7cc(COc8cccc(-c9cccc(COc%10cc(OCc%11cncc(S(C)(=O)=O)c%11)c(CN[C@@H](CS(=O)(=O)O)C(=O)NCCS(=O)(=O)O)cc%10Br)c9C)c8C)nn7)CC6)(CNCCNC4)CNCCNC5)CC3)nn2)c1C.[64Cu+2] [[^64Cu]Cu-17],intact radioligand after incubation in human serum,[2],86%
same,contrast of PD-L1 positive tumor to PD-L1 negative tumor,[3]; 24–25 h p.i.,109%
same,excretion pattern / clearance route in PET,[3]; mice,rather renal than hepatobiliary clearance
same,SUVmax PC3 PD-L1 tumor,"[3]; 1-2 hour p.i., mice",0.49 ± 0.11
same,SUVmax PC3 mock tumor,"[3]; 1-2 hour p.i., mice",0.31
same,SUVmax kidney,"[3]; 1-2 hour p.i., mice",1.32 ± 0.47
same,SUVmax liver,"[3]; 1-2 hour p.i., mice",17.0 ± 1.48
same,SUVmax PC3 PD-L1 tumor,[3]; [10],0.49
same,SUVmax kidney,[3]; [10],1.32
same,SUVmax liver,[3]; [10],17.03
same,SUVmax PC3 PD-L1 tumor,"[3]; 4-5 hour p.i., mice",0.81
same,SUVmax PC3 mock tumor,"[3]; 4-5 hour p.i., mice",0.50
same,SUVmax kidney,"[3]; 4-5 hour p.i., mice",2.18 ± 0.80
same,SUVmax liver,"[3]; 4-5 hour p.i., mice",14.4 ± 1.26
same,SUVmax kidney,[3]; [11],2.18
same,SUVmax liver,[3]; [11],14.35
same,SUVmax PC3 PD-L1 tumor,"[3]; 24-25 hour p.i., mice",2.47 ± 1.04
same,SUVmax PC3 mock tumor,"[3]; 24-25 hour p.i., mice",1.18
same,SUVmax kidney,"[3]; 24-25 hour p.i., mice",2.40 ± 0.60
same,SUVmax liver,"[3]; 24-25 hour p.i., mice",8.62 ± 0.84
same,SUVmax PC3 PD-L1 tumor,[3]; [12],2.47
same,SUVmax kidney,[3]; [12],2.40
same,SUVmax liver,[3]; [12],8.62
